# Measured values from patent US9321795B2, “Use of hydroxycinnamaldehyde glycoside derivatives for treating glomerulonephritis” (National Defense Medical Center, priority 2014, dated 2016).
# Tests used:
# [1] = test system: LPS induced mouse GN model; experiment: Urine protein and serum BUN (renal function) in LPS induced mouse GN model; type: in vivo; conditions: LPS induced GN C57BL/6 mice
# Description: (§1) Experiments were performed on 8-week-old female C57BL/6 mice. The mice were separated into 3 groups at 8-weeks old. One of the groups were injected intravenously with normal saline to be used as normal controls, where the pathological control group and the GN disease treatment group by the cinnamaldehyde derivative of the invention were intraperitoneally injected with […] Salmonella LPS (Sigma, USA) (Am J Physiol Renal Physiol, 296: F1088-1099, 2009; Nephron, 84: 167-176, 2000; Nephron Exp Nephrol, 112: e81-91, 2009) twice a week, continuously for 7 weeks for disease induction. Starting two days before disease induction, the GN disease treatment group was intraperitoneally injected with the cinnamaldehyde derivative of the invention at a daily dose of 30 mg/ml for continuous 7 weeks, while the pathological control group was given placebo daily through intraperitoneal injection. Urine samples were collected in metabolic cages every week. Mice were sacrificed on 7th week after the disease induction. Blood, kidneys, spleen and liver were collected and stored properly for further analysis.
# Serum blood urea nitrogen (BUN) and proteinuria were used to assess mice kidney function. Serum blood urea nitrogen (BUN) measurement of serum collected through the eye socket was done through a tester (Fuji DRI-CHEM 3000) with a test specimen (Fuju DRI-CHEM SLIDE). […]
# glomeruli of GN mice = experiment: Renal histopathology (H&E) in LPS induced mouse GN model; type: in vivo; conditions: i.p. daily 30 mg/ml, 7 weeks, FIG. 2
# Description: as §1
# To evaluate the renal histological changes, 10% formalin was used to fix the tissues, and sections were prepared and stained with hematoxylin and eosin (H&E) and observed under microscope. Changes in the tissues were analyzed by semi-quantitation. Items evaluated include: (1) cell density changes in glomerulus; (2) glomerulus fibrosis; (3) cell necrosis in glomerulus; (4) formation of crescent of glomerulonephritis. According to the ratio of glomeruli having pathological changes, 0 to 4 points were given as scores. 25 glomeruli were measured for each group and the sum of the points represents the renal histological changes. Secondly, mesenchymal and renal tubular atrophy, erythrocyte and protein granule sedimentation in renal tubules and mesenchymal inflammation were also evaluated.
# macrophage (F4/80) = experiment: Immunohistochemistry of kidney, macrophage marker F4/80; type: in vivo, mouse; conditions: LPS induced GN mice; i.p. daily 30 mg/ml, 7 weeks; IHC; vs GN disease group; FIG. 3(A),(D),(E)
# Description: as §1
# (§2) In addition, to carry out immunohistochemistry (IHC) analysis, tissue fixation, paraffin-embedding, sectioning, rehydration and antigen retrieval were done with routine procedures, and 3% H2O2 was used to remove endogenous peroxidase. […]
# T cell (CD3) = experiment: Immunohistochemistry of kidney, T cell (CD3) infiltration; type: in vivo, mouse; conditions: LPS induced GN mice; i.p. daily 30 mg/ml, 7 weeks; IHC; FIG. 3(A),(B),(C)
# Description: as §1, §2
# NF-κB = experiment: Immunohistochemistry of kidney, NF-κB expression; type: in vivo, mouse; conditions: LPS induced GN mice; i.p. daily 30 mg/ml, 7 weeks; IHC; FIG. 4(A),(B)
# Description: as §1, §2
# spleen cells = experiment: Flow cytometry of T cell and B cell activation in spleen cells; type: in vivo, mouse; conditions: LPS induced GN mice, i.p. daily 30 mg/ml, 7 weeks
# Description: as §1
# Mice spleens were taken out, grinded, rinsed and centrifuged to obtain spleen cells. To carry out mice inflammation reaction analysis, 1×10^6 cells were taken and reacted with anti-mouse CD3-FITC antibody, anti-mouse […] antibody anti-mouse CD8-PE, anti-mouse CD19-FITC antibody and anti-mouse CD69-PE antibody (all purchased from BD Pharmingen, CA) respectively in the dark under room temperature for 30 minutes, and analyzed with flow cytometry (Beckton Dickinson, Calif.).
# NF-κB p65 = NF-κB p65 activity in kidney tissues (ELISA); type: in vivo, mouse; conditions: LPS induced GN mice, i.p. daily 30 mg/ml, 7 weeks, FIG. 4(C)
# Description: as §1, with “Blood, kidneys, spleen and liver were collected and stored properly for further analysis.” left out
# Renal cortical tissues were taken and extracted for nuclear protein with nucleus extraction kit (Active Motif, Japan), and nuclear proteins were taken to detect NF-κB p65 activity after protein quantitation. […] Lastly, ELISA reader (Bio-Tek, USA) was used to detect OD 450 nm absorption and the values were converted to sample concentration according to the standard curve.
# IL-6 = IL-6 protein in kidney tissue (ELISA); type: in vivo, mouse; conditions: LPS induced GN mice, i.p. daily 30 mg/ml, 7 weeks, FIG. 4(D)
# Description: as §1
# (§3) ELISA reader (Bio-Tek, USA) was used to detect OD 450 nm absorption and the values were converted to sample concentration according to the standard curve.
# IL-1β [2] = experiment: Mature IL-1β in renal cortical protein (ELISA); type: in vivo, mouse; conditions: LPS induced GN mice, i.p. daily 30 mg/ml, 7 weeks, FIG. 5(H)
# Description: as §1, §3
# NLRP3 = experiment: Real-time PCR of kidney tissue, NLRP3; type: in vivo, mouse; conditions: LPS induced GN mice, i.p. daily 30 mg/ml, 7 weeks, FIG. 5(A)-(D)
# Description: as §1
# (§4) RNA was extracted from kidney tissues, reverse transcribed to cDNA and Real-Time PCR (Applied Biosystems) was carried out. Items determined include: IL-6, NLRP3, caspase-1, IL-1β and IL-18, where GAPDH gene expression levels were used to carry out the internal correction.
# caspase-1 [3] = experiment: Real-time PCR of kidney tissue, caspase-1; type: in vivo, mouse; conditions: LPS induced GN mice, i.p. daily 30 mg/ml, 7 weeks, FIG. 5(A)-(D)
# Description: as §1, §4
# IL-1β [4] = experiment: Real-time PCR of kidney tissue, IL-1β; type: in vivo, mouse; conditions: LPS induced GN mice, i.p. daily 30 mg/ml, 7 weeks, FIG. 5(A)-(D)
# Description: as §1, §4
# IL-18 = experiment: Real-time PCR of kidney tissue, IL-18; type: in vivo, mouse; conditions: LPS induced GN mice, i.p. daily 30 mg/ml, 7 weeks, FIG. 5(A)-(D)
# Description: as §1, §4
# caspase-1 [5] = experiment: Western blot of renal cortical proteins, caspase-1; type: in vivo, mouse; conditions: LPS induced GN mice, i.p. daily 30 mg/ml, 7 weeks
# Description: as §1
# Renal cortical tissues were cut to pieces and placed in buffer, and grinding with sonication was used to lyse the cells. After centrifugation, the supernatant was preserved, and protein concentration was measured with protein concentration analyzing kit (BCA protein Assay Kit, PIERCE). […]
# TLR4 = experiment: Reverse-transcription PCR, TLR4 mRNA; type: in vivo, mouse; conditions: LPS induced GN mice, i.p. daily 30 mg/ml, 7 weeks, semi-quantitated, FIG. 6
# Description: as §1
# (§5) Reverse-transcription PCR was used to evaluate and semi-quantitate TLR4 and its following adaptin Myd88 mRNA expression. […]
# MyD88 = experiment: Reverse-transcription PCR, MyD88 mRNA; type: in vivo, mouse; conditions: LPS induced GN mice, i.p. daily 30 mg/ml, 7 weeks, semi-quantitated, FIG. 6
# Description: as §1, §5
# [6] = Drug safety by weekly weight change of mice; type: in vivo, mouse; conditions: LPS induced GN mice, i.p. daily 30 mg/ml, 7 weeks; for weight change of mice: recorded each week, compared to normal control group, FIG. 7
# Description: as §1
# During the experiment processes, the drug safety of the cinnamaldehyde derivative was assessed through recording the weight change of mice each week.
compound,measurement,setting,value
"O=CC=Cc1ccc(OC2OC(CO)C(O)C(O)C2O)cc1 (centres unmarked) [cinnamaldehyde derivative, 4-hydroxyphenylacrylaldehyde glycoside]",serum blood urea nitrogen (BUN),"[1]; i.p. daily 30 mg/ml for 7 weeks, vs pathological control group, FIG. 1(B)",significantly lower
same,urine protein content (proteinuria),"[1]; i.p. daily dose of 30 mg/ml for 7 weeks, vs disease group, *p<0.05, FIG. 1(A)",reduce proteinuria
same,glomerular fibrosis,glomeruli of GN mice,no fibrosis condition occurrence was observed
same,glomerular proliferation,glomeruli of GN mice,significantly ameliorated
same,lymphocyte infiltration,glomeruli of GN mice,reduced
same,macrophage (F4/80) staining in kidney,macrophage (F4/80),significantly less
same,T lymphocyte (CD3) infiltration in glomeruli,T cell (CD3),significantly lowered
same,NF-κB expression in kidney tissue,NF-κB,reduce its expression level
same,Helper T cells (CD4+) activation ratio in spleen cells,"spleen cells; ***p<0.005, FIG. 3(G)",significantly ameliorated
same,T cell (CD3+) activation in spleen cells,spleen cells; FIG. 3(F),showed the tendency of reduction
same,B cell (CD19+) activation in spleen cells,spleen cells; FIG. 3(H),no significant difference
same,NF-κB p65 content (activation) in renal cortical proteins,NF-κB p65,lower its activation level
same,IL-6 protein expression level in kidney tissue,IL-6,reduce IL-6 expression
same,amount of mature IL-1β,IL-1β [2],significantly decreased
same,amount of mature IL-1β,IL-1β [2]; listed as hydroxycinammaldehde glycoside derivate,significantly increased in GN disease group compared to hydroxycinammaldehde glycoside derivate treated GN group
same,NLRP3 gene expression level in kidney tissue,NLRP3,significantly reduced
same,caspase-1 gene expression level in kidney tissue,caspase-1 [3],significantly reduced
same,IL-1β gene expression level in kidney tissue,IL-1β [4],significantly reduced
same,IL-18 gene expression level in kidney tissue,IL-18,significantly reduced
same,matured caspase-1 expression level,caspase-1 [5]; FIG. 5(E),higher in the disease group than in the cinnamaldehyde derivative treatment group
same,pro-caspase-1 expression level,caspase-1 [5]; FIG. 5(E)-(G),reduced
same,TLR4 mRNA expression level,TLR4,reduced
same,MyD88 mRNA expression level,MyD88,reduced
same,side-effects in animals,[6]; judged from weight change,did not cause obvious side-effects
same,weight change of mice,[6]; listed as hydroxycinammaldehde glycoside derivative,does not result in weight loss
same,weight change of mice,[6]; listed as hydroxycinnamaldehyde derivative,stable increase in their bodyweight
